pEC50, pIC50: −log10 of the molar value. Structures can show the parent of a compound that is named as a salt.
Key:
[1] = target: T1, HCV RNA dependent RNA polymerase (NS5B) (Hepatitis C virus genotype 1b, UniProt P26663); assay: In-vitro HCV NS5B enzyme inhibition assay; format: biochemical; conditions: NS5B enzyme 5 nM, 1 h at 22° C.
T1 construct: made in house; host or cells: insect cells infected with recombinant baculovirus (as described for the cited WO 96/37619)
Description: i) In-vitro HCV NS5B Enzyme Inhibition Assay
WO 96/37619 describes the production of recombinant HCV RdRp from insect cells infected with recombinant baculovirus encoding the enzyme. […] The reference describes a polymerisation assay using poly(A) and oligo(U) as a primer or an heteropolymeric template. Incorporation of tritiated UTP or NTPs is quantified by measuring acid-insoluble radioactivity. The present inventors have employed this assay to screen the various compounds described above as inhibitors of HCV RdRp.
(§1) Incorporation of radioactive UMP was measured as follows. The standard reaction (50 μl) was carried out in a buffer containing 20 mM tris/HCl pH 7.5, 5 mM MgCl2, 1 mM DTT, 50 mM NaCl, 0.03% N-octylglucoside, 1 μCi [^3H]-UTP (40 Ci/mmol, NEN), 10 μM UTP and 10 μg/ml poly(A) or 5 μM NTPs and 5 μg/ml heteropolymeric template. Oligo(U)12 (1 μg/ml, Genset) was added as a primer in the assay working on Poly(A) template. The final NS5B enzyme concentration was 5 nM. The order of assembly was: 1) compound, 2) enzyme, 3) template/primer, 4) NTP. After 1 h incubation at 22° C. the reaction was stopped by adding 50 μl of 20% TCA and applying samples to DE81 filters. The filters were washed thoroughly with 5% TCA containing 1M Na2HPO4/NaH2PO4, pH 7.0, rinsed with water and then ethanol, air dried, and the filter-bound radioactivity was measured in the scintillation counter. […]

[2] = test system: subgenomic HCV replicon in Huh-7 cells; assay: Cell based HCV sub-genomic replication assay (NS3 Cell-ELISA); conditions: Hepatitis C virus; Huh-7 replicon cells, 96 hours, NS3 expression
Protocol: as §1
Cell clones that stably maintain subgenomic HCV replicon were obtained by transfecting Huh-7 cells with an RNA replicon identical to I377neo/NS3-3′/wt described by Lohmann et al. (1999) (EMBL-genbank No. AJ242652), followed by selection with neomycin sulfate (G418). […] Each condition was tested in duplicate and average absorbance values were used for calculations. […] After washing again as above, the reaction was developed with p-Nitrophenyl phosphate disodium substrate (Sigma) and the absorbance at 405/620 nm read at intervals. […]

T1 sequence (P26663 2420-3010): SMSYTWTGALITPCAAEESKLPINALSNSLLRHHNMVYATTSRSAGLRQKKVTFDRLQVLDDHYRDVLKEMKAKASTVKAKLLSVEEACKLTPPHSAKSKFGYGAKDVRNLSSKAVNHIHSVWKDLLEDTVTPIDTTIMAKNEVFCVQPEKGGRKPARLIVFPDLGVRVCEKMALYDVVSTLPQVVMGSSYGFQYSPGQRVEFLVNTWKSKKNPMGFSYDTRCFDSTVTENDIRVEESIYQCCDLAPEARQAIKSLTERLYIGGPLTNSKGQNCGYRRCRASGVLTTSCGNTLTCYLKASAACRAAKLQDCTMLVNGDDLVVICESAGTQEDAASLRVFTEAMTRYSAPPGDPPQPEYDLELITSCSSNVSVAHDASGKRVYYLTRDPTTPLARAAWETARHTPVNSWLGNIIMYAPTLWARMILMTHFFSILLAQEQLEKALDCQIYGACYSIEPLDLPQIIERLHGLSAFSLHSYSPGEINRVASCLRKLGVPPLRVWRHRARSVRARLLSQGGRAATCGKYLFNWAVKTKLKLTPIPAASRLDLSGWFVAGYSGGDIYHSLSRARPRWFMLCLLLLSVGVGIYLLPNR

CN(CC1CCCCN1C)C(=O)Cn1c(-c2ccccc2)c(C2CCCCC2)c2ccc(C(=O)O)cc21 (centres unmarked) [Example 15, 3-cyclohexyl-1-(2-{methyl[(1-methylpiperidin-2-yl)methyl]amino}-2-oxoethyl)-2-phenyl-1H-indole-6-carboxylic acid trifluoroacetate] showed a pIC50 [1] of 7.85 and a pEC50 [2] of 6.57.

Reference: patent US20070167447A1, “Indole acetamides as inhibitors of the hepatitis c virus ns5b polymerase” (priority 2003, published 2007)
